Data reported in ChEMBL document CHEMBL2311425, “Histone deacetylase (HDAC) inhibitors with a novel connecting unit linker region reveal a selectivity profile for HDAC4 and HDAC5 with improved activity against chemoresistant cancer cells” (J Med Chem, 2013).

What was measured:
MDA-MB-231 [1] = experiment: Potentiation of 25 uM cisplatin-induced toxicity in 1 uM cisplatin resistant human MDA-MB-231 cells at 0.25 uM pretreated for 48 hrs followed by 1 uM cisplatin treatment by MTT assay; format: functional
A2780 = experiment: Potentiation of 5 uM cisplatin-induced toxicity in 5 uM cisplatin resistant human A2780 cells at 1 uM pretreated for 48 hrs followed by 5 uM cisplatin treatment by MTT assay; format: functional
CAL-27 [2] = experiment: Potentiation of 2.5 uM cisplatin-induced toxicity in 1 uM cisplatin resistant human CAL27 cells at 0.5 uM pretreated for 48 hrs followed by 1 uM cisplatin treatment by MTT assay; format: functional
KYSE-510 [3] = experiment: Potentiation of 0.5 uM cisplatin-induced toxicity in 0.5 uM cisplatin resistant human KYSE-510 cells at 1 uM pretreated for 48 hrs followed by 0.5 uM cisplatin treatment by MTT assay; format: functional
MDA-MB-231 [4] = experiment: Potentiation of 5 uM cisplatin-induced toxicity in 1 uM cisplatin resistant human MDA-MB-231 cells at 1.5 uM pretreated for 48 hrs followed by 1 uM cisplatin treatment by MTT assay; format: functional
MDA-MB-231 [5] = experiment: Potentiation of 5 uM cisplatin-induced toxicity in 1 uM cisplatin resistant human MDA-MB-231 cells at 0.5 uM pretreated for 48 hrs followed by 1 uM cisplatin treatment by MTT assay; format: functional
MDA-MB-231 [6] = experiment: Potentiation of 5 uM cisplatin-induced toxicity in 1 uM cisplatin resistant human MDA-MB-231 cells at 0.25 uM pretreated for 48 hrs followed by 1 uM cisplatin treatment by MTT assay; format: functional
[7] = biological target: T1, Protein deacetylase HDAC6 (Homo sapiens, UniProt Q9UBN7); experiment: Inhibition of human HDAC6 by fluorescence assay
T1 sequence (Q9UBN7 whole entry): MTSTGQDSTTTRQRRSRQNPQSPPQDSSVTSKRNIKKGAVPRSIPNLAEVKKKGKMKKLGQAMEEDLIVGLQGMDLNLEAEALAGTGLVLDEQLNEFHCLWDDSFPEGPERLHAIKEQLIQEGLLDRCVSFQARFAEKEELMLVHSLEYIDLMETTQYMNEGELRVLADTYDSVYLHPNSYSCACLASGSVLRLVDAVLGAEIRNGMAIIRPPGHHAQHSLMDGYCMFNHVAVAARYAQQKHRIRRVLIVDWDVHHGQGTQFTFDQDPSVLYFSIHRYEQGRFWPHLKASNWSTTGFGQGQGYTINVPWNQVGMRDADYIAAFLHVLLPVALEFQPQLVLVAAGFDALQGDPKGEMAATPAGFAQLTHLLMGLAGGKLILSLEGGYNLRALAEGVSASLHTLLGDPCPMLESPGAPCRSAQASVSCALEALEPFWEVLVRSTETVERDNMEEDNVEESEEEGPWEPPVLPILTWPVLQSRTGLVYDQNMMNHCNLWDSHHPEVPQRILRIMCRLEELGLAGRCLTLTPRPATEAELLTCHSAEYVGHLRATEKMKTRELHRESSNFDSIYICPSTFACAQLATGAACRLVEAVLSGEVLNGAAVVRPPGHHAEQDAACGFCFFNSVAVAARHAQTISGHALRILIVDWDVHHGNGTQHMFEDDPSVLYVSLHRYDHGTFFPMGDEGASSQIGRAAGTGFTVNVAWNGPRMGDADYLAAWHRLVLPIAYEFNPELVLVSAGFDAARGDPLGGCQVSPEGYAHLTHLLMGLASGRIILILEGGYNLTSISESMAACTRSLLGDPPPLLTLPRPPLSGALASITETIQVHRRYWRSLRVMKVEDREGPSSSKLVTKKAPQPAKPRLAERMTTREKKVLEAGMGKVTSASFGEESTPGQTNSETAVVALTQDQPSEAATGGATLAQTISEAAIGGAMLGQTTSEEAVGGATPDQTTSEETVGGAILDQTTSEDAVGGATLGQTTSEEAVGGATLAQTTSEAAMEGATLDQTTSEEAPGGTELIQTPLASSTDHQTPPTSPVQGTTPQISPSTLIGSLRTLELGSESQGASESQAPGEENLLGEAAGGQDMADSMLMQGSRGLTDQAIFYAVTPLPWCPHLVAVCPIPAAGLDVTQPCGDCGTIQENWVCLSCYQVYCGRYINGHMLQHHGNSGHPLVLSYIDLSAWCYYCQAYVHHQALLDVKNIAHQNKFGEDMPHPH

Histone deacetylase 1 = Histone deacetylase 1 (Homo sapiens, UniProt Q13547); experiment: Inhibition of human HDAC1 by fluorescence assay
Sequence of Histone deacetylase 1 (Q13547 whole entry): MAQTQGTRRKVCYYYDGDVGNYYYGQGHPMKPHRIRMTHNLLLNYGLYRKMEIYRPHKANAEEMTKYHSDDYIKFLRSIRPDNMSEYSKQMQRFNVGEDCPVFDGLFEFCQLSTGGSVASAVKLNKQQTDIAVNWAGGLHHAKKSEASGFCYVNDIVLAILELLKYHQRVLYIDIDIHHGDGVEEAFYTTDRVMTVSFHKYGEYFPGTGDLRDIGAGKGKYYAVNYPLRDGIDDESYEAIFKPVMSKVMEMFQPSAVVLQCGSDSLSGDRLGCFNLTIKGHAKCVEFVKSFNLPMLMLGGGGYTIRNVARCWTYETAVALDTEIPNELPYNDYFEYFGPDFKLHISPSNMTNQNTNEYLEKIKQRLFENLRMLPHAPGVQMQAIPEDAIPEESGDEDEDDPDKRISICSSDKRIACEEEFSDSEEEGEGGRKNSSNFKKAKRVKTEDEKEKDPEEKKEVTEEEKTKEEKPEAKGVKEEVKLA

CAL-27 [8] = experiment: Cytotoxicity against cisplatin resistant human CAL27 cells after 72 hrs by MTT assay; format: functional, cell-based; details: CAL-27, 72 h
KYSE-510 [9] = experiment: Potentiation of 8 uM cisplatin-induced toxicity in 0.5 uM cisplatin resistant human KYSE-510 cells at 1 uM pretreated for 48 hrs followed by 0.5 uM cisplatin treatment by MTT assay; format: functional
KYSE-510 [10] = experiment: Potentiation of 8 uM cisplatin-induced toxicity in 0.5 uM cisplatin resistant human KYSE-510 cells at 0.25 uM pretreated for 48 hrs followed by 0.5 uM cisplatin treatment by MTT assay; format: functional
CAL-27 [11] = experiment: Potentiation of 45 uM cisplatin-induced toxicity in 1 uM cisplatin resistant human CAL27 cells at 1 uM pretreated for 48 hrs followed by 1 uM cisplatin treatment by MTT assay; format: functional
CAL-27 [12] = experiment: Potentiation of 45 uM cisplatin-induced toxicity in 1 uM cisplatin resistant human CAL27 cells at 0.25 uM pretreated for 48 hrs followed by 1 uM cisplatin treatment by MTT assay; format: functional
MDA-MB-231 [13] = experiment: Potentiation of […] cisplatin-induced toxicity in 1 uM cisplatin resistant human MDA-MB-231 cells at 0.5 uM pretreated for 48 hrs followed by 1 uM cisplatin treatment by MTT assay; format: functional
KYSE-510 [14] = experiment: Potentiation of 3.16 uM cisplatin-induced toxicity in 0.5 uM cisplatin resistant human KYSE-510 cells at 1.5 uM pretreated for 48 hrs followed by 0.5 uM cisplatin treatment by MTT assay; format: functional
CAL-27 [15] = experiment: Potentiation of 10 uM cisplatin-induced toxicity in 1 uM cisplatin resistant human CAL27 cells at 1 uM pretreated for 48 hrs followed by 1 uM cisplatin treatment by MTT assay; format: functional
KYSE-510 [16] = experiment: Potentiation of 1 uM cisplatin-induced toxicity in 0.5 uM cisplatin resistant human KYSE-510 cells at 1.5 uM pretreated for 48 hrs followed by 0.5 uM cisplatin treatment by MTT assay; format: functional
CAL-27 [17] = experiment: Potentiation of 5 uM cisplatin-induced toxicity in 1 uM cisplatin resistant human CAL27 cells at 0.5 uM pretreated for 48 hrs followed by 1 uM cisplatin treatment by MTT assay; format: functional

Cc1cc(C)cc(C(=O)NOCCCCCC(=O)NO)c1
Activity (MDA-MB-231 [1]): Dose-dependent effect | Activity (A2780): Dose-dependent effect | fractional inhibitory concentration index (FICI) (A2780): 0.64 | Activity (CAL-27 [2]): Dose-dependent effect | Activity (KYSE-510 [3]): Dose-dependent effect | fractional inhibitory concentration index (FICI) (KYSE-510 [3]): 0.08 | Activity (MDA-MB-231 [4]): Dose-dependent effect | fractional inhibitory concentration index (FICI) (MDA-MB-231 [4]): <0.2 | Activity (MDA-MB-231 [5]): Dose-dependent effect | fractional inhibitory concentration index (FICI) (MDA-MB-231 [5]): <0.2 | Activity (MDA-MB-231 [6]): Dose-dependent effect | fractional inhibitory concentration index (FICI) (MDA-MB-231 [6]): <0.2 | IC50 [7]: 55.7 nM | IC50 (Histone deacetylase 1): 320 nM | IC50 (CAL-27 [8]): 1810 nM | Activity (KYSE-510 [9]): Dose-dependent effect | fractional inhibitory concentration index (FICI) (KYSE-510 [9]): 0.18 | Activity (KYSE-510 [10]): Dose-dependent effect | fractional inhibitory concentration index (FICI) (KYSE-510 [10]): 0.18 | Activity (CAL-27 [11]): Dose-dependent effect | fractional inhibitory concentration index (FICI) (CAL-27 [11]): 0.27 | Activity (CAL-27 [12]): Dose-dependent effect | fractional inhibitory concentration index (FICI) (CAL-27 [12]): 0.27 | Activity (MDA-MB-231 [13]): Dose-dependent effect | fractional inhibitory concentration index (FICI) (MDA-MB-231 [13]): 0.81 | Activity (KYSE-510 [14]): Dose-dependent effect | fractional inhibitory concentration index (FICI) (KYSE-510 [14]): 0.12 | Activity (CAL-27 [15]): Dose-dependent effect | fractional inhibitory concentration index (FICI) (CAL-27 [15]): 0.24 | Activity (KYSE-510 [16]): Dose-dependent effect | fractional inhibitory concentration index (FICI) (KYSE-510 [16]): 0.05 | Activity (CAL-27 [17]): Dose-dependent effect | fractional inhibitory concentration index (FICI) (CAL-27 [17]): 0.45
